Data as given in ChEMBL document CHEMBL4177690, “(E)-3-(3,4,5-Trimethoxyphenyl)-1-(pyridin-4-yl)prop-2-en-1-one, a heterocyclic chalcone is a potent and selective CYP1A1 inhibitor and cancer chemopreventive agent” (Bioorg Med Chem Lett, 2017).

Tests used:
Cytochrome P450 2C9 [1] = biological target: T1, Cytochrome P450 2C9 (Homo sapiens, UniProt P11712); assay: Inhibition of human CYP2C9 expressed in yeast microsomal membranes using 3-cyano-7-ethoxycoumarin as substrate measured after 10 mins by fluorescence assay; assay type: ADME, cell membranes, Microsomal Membrane
T1 sequence (P11712 whole entry): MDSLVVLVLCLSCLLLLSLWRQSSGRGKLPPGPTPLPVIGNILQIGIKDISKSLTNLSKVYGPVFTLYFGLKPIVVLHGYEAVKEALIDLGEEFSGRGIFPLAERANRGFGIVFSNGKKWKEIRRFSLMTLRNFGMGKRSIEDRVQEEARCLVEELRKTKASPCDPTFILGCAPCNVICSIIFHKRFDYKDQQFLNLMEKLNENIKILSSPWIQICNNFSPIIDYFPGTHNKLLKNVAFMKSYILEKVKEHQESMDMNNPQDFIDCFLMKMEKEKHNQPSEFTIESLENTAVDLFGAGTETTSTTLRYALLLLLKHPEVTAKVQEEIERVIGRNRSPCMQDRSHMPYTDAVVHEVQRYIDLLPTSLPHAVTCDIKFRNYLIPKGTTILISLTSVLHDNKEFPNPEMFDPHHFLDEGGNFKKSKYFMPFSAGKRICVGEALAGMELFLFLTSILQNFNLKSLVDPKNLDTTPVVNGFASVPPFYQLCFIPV

Cytochrome P450 3A4 = Cytochrome P450 3A4 (Homo sapiens, UniProt P08684); assay: Inhibition of human CYP3A4 expressed in yeast microsomal membranes using dibenzylfluorescein as substrate measured after 10 mins by fluorescence assay; assay type: ADME, cell membranes, Microsomal Membrane
Sequence of Cytochrome P450 3A4 (P08684 whole entry): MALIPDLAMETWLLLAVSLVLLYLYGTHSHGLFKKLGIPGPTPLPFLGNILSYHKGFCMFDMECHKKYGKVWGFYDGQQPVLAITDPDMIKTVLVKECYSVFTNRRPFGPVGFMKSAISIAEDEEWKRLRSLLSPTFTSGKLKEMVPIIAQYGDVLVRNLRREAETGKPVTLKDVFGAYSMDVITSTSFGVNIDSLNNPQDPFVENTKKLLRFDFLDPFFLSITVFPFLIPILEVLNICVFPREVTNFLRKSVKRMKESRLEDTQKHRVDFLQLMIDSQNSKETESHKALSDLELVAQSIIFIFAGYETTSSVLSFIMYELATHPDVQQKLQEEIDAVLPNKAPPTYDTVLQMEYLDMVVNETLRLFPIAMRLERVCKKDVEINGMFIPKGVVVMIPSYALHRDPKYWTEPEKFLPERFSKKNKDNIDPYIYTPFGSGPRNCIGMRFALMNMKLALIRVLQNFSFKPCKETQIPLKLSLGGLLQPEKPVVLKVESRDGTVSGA

Cytochrome P450 1A2 [2] = biological target: T2, Cytochrome P450 1A2 (Homo sapiens, UniProt P05177); assay: Inhibition of recombinant human CYP1A2 expressed in HEK293 cells using 3-cyano-7-ethoxycoumarin as substrate pretreated for 30 mins followed by substrate addition measured for 60 mins by fluorescence assay; assay type: ADME
T2 sequence (P05177 whole entry): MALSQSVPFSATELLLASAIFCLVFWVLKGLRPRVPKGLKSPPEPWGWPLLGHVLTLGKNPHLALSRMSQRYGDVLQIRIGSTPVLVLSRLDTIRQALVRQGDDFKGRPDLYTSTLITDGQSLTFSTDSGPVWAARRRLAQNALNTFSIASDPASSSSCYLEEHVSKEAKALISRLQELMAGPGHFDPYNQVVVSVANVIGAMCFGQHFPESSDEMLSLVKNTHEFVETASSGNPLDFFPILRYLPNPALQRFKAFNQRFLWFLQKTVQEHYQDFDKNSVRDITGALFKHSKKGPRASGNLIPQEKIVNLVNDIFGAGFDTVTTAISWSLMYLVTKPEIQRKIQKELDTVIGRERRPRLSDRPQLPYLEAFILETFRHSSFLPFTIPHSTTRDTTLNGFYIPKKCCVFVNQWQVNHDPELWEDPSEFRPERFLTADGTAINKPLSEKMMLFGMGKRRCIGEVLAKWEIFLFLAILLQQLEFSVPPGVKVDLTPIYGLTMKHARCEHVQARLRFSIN

Cytochrome P450 2C9 [3] = biological target: T1, Cytochrome P450 2C9; assay: Inhibition of recombinant human CYP2C9 expressed in HEK293 cells using 3-cyano-7-ethoxycoumarin as substrate pretreated for 30 mins followed by substrate addition measured for 60 mins by fluorescence assay; assay type: ADME
Homo sapiens [4] = organism: Homo sapiens; assay: Selectivity ratio of IC50 for recombinant human CYP1B1 expressed in HEK293 cells to IC50 for recombinant human CYP1A1 expressed in HEK293 cells; assay type: cell-based
Cytochrome P450 1A1 = biological target: T3, Cytochrome P450 1A1 (Homo sapiens, UniProt P04798); assay: Time-dependent inhibition of recombinant human CYP1A1 expressed in HEK293 cells using 7-ethoxyresorufin as substrate
T3 sequence (P04798 whole entry): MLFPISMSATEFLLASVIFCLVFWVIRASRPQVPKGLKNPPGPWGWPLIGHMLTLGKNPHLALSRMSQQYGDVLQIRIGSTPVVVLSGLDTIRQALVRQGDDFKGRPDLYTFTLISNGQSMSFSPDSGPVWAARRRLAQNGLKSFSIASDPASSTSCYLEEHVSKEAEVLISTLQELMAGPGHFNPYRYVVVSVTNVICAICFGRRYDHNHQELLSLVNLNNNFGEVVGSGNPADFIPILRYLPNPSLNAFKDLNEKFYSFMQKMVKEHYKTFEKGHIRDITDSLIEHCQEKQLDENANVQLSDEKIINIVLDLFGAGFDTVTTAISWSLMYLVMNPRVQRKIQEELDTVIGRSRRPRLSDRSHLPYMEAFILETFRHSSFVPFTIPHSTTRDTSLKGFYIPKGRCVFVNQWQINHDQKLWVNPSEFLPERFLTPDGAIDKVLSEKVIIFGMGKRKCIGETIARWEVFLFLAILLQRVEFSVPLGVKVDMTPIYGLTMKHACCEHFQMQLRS

Cytochrome P450 1A2 [5] = biological target: T2, Cytochrome P450 1A2; assay: Inhibition of human CYP1A2 expressed in yeast cells; assay type: ADME, cell-based
Cytochrome P450 2A6 = biological target: T4, Cytochrome P450 2A6 (Homo sapiens, UniProt P11509); assay: Inhibition of human CYP2A6 expressed in yeast cells; assay type: ADME, cell-based
T4 sequence (P11509 whole entry): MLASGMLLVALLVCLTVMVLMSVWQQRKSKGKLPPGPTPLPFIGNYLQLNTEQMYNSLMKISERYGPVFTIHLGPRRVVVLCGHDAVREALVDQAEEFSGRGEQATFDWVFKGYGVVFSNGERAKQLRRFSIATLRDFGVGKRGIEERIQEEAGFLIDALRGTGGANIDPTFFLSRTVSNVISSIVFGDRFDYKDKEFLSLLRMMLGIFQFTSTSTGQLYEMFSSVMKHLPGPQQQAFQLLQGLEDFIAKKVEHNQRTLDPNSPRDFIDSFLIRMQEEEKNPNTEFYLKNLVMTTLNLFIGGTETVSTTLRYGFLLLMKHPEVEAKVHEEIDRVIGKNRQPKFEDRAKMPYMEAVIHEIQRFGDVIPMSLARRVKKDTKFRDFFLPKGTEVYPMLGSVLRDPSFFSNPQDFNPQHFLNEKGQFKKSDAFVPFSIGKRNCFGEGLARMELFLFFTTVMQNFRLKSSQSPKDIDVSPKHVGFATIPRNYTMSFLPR

Cytochrome P450 2C8 = biological target: T5, Cytochrome P450 2C8 (Homo sapiens, UniProt P10632); assay: Inhibition of human CYP2C8 expressed in yeast cells; assay type: ADME, cell-based
T5 sequence (P10632 whole entry): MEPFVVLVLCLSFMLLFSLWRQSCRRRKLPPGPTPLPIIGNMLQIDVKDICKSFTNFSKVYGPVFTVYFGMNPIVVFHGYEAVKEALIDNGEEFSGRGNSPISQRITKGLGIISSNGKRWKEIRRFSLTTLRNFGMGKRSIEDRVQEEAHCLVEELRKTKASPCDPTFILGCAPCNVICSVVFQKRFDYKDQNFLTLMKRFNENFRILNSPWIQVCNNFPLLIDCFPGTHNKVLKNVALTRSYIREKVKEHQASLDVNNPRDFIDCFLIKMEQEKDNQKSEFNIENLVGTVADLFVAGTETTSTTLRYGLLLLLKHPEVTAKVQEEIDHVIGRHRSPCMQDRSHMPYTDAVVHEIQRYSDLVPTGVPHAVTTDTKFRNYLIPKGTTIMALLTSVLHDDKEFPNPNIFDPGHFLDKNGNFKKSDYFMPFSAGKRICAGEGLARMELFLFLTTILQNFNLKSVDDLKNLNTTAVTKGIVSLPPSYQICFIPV

Homo sapiens [6] = organism: Homo sapiens; assay: Selectivity ratio of IC50 for recombinant human CYP2D6 to IC50 for recombinant human CYP1A1
Homo sapiens [7] = organism: Homo sapiens; assay: Selectivity ratio of IC50 for recombinant human CYP2C9 to IC50 for recombinant human CYP1A1

SMILES: COc1cc(/C=C/C(=O)c2ccncc2)cc(OC)c1OC
- IC50 (Cytochrome P450 2C9 [1]): > 20 µM
- IC50 (Cytochrome P450 3A4): > 20 µM
- IC50 (Cytochrome P450 1A2 [2]): 1.12 µM
- IC50 (Cytochrome P450 2C9 [3]): > 10 µM
- Ratio IC50 (Homo sapiens [4]): < 10
- TDI (Cytochrome P450 1A1): Not Active
- IC50 (Cytochrome P450 1A2 [5]): 1.82 µM
- IC50 (Cytochrome P450 2A6): > 10 µM
- IC50 (Cytochrome P450 2C8): 8.92 µM
- Ratio IC50 (Homo sapiens [6]): > 100
- Ratio IC50 (Homo sapiens [7]): > 100
